The values that follow come from US7727999B2, “Spiroazacyclic compounds as monoamine receptor modulators” (ACADIA Pharmaceuticals Inc., priority 2001, dated 2010).

SMILES strings stand for the structures. Counter-ions that a name gives are not always drawn.

The test system of data set [1] is spontaneous locomotor activity. As to the kind of experiment: Spontaneous locomotor activity in mice. Type of data set: in vivo. Conditions: at doses that attenuate MK-801 hyperactivity; compound administered alone. On the procedure:
Male Non-Swiss Albino mice (Harlan Sprague-Dawley) were housed (4 mice/cage) in rooms with temperature and humidity controlled and water and food (Harlan Teklad) freely available. Mice were kept on a 12-hr light:dark cycle. For locomotor experiments, plastic 20×20×30 cm activity cages were equipped with photocell beams (AccuScan Instruments). For hyperactivity experiments, mice were treated with 0.3 mg/kg dizocilpine i.p. 15 min before the session. Mice were treated with 69NLS75 s.c. 10 min before the session or p.o. 30 min before the session and placed into the activity cages. For spontaneous activity, 69NLS75 was administered alone. Locomotor data were collected during a 15 min session without habituation in a lit room. Each dose combination was tested in a separate group of animals (n=8). Distance traveled (cm) was calculated and averaged followed by ANOVA and post-hoc Dunnett's t-test comparisons.

The next data set addresses T1, H1 (Homo sapiens, UniProt P35367).
T1 construct: expressed in transfected cells; host or cells: NIH3T3 cells, pSI vector
As to the kind of experiment: R-SAT selectivity profiling, H1. Type of data set: cell-based. As to conditions: H1, antagonist assay; read-out: pEC50 or pIC50 (converted). On the procedure:
(§1) The functional receptor assay, Receptor Selection and Amplification Technology (R-SAT), was used (with minor modifications from that previously described U.S. Pat. No. 5,707,798) to screen compounds for efficacy at the 5-HT2A receptor. Briefly, NIH3T3 cells were grown in 96 well tissue culture plates to 70-80% confluence. Cells were transfected for 12-16 hours with plasmid DNAs using superfect (Qiagen Inc.) as per manufacture's protocols. R-SAT's were generally performed with 50 ng/well of receptor and 20 ng/well of Beta-galactosidase plasmid DNA-All receptor and G-protein constructs used were in the pSI mammalian expression vector (Promega Inc) as described in U.S. Pat. No. 5,707,798. The 5HT2A receptor gene was amplified by nested PCR from brain cDNA using the oligodeoxynucleotides based on the published sequence (see Saltzman et. al. Biochem. Biophys. Res. Comm. 181:1469-78 (1991)). Large-scale transfections, cells were transfected for 12-16 hours, then trypsinized and frozen in DMSO. […] Media was then removed from the plates and marker gene activity was measured by the addition of the beta-galactosidase substrate ONPG (in PBS with 5% NP-40). The resulting calorimetric reaction was measured in a spectrophotometric plate reader (Titertek Inc.) at […]. All data were analyzed using the computer program XLFit (IDBSm). […]

A further data set deals with T2, 5HT 2C (Homo sapiens, UniProt P28335).
T2 construct: expressed in transfected cells; host or cells: NIH3T3 cells, pSI vector
T2 sequence (P28335 33-458): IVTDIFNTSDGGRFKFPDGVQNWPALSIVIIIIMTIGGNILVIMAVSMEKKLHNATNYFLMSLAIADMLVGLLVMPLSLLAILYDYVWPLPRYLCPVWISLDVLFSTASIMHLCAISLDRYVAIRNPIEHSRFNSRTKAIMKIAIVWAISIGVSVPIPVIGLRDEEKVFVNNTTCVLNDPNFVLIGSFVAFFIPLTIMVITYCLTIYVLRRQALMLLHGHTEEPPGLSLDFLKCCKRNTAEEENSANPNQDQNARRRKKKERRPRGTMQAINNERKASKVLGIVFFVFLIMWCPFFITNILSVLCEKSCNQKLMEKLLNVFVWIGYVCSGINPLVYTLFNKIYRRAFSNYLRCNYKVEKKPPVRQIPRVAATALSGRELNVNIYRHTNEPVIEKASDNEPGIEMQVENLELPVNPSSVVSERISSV
As to the kind of experiment: R-SAT selectivity profiling, 5HT 2C. Type of data set: cell-based. On the procedure:
as §1

A further data set addresses T3, m3 (Homo sapiens, UniProt P20309).
T3 construct: expressed in transfected cells; host or cells: NIH3T3 cells, pSI vector
As to the kind of experiment: R-SAT selectivity profiling, m3. Type of data set: cell-based. Conditions: m3, antagonist assay; read-out: pEC50 or pIC50 (converted). The procedure:
as §1

Data set [2] has as its system MK-801-induced hyperactivity in mice. As to the kind of experiment: Attenuation of MK-801 (dizocilpine)-induced hyperactivity in mice. Type of data set: in vivo. Conditions: for MED (mg/kg) p.o.: mice treated with MK801, oral administration; for dose giving statistically significant decrease of MK-801-induced hyperactivity compared to vehicle control: 0.3 mg/kg dizocilpine i.p. The procedure: Male Non-Swiss Albino mice (Harlan Sprague-Dawley) were housed (4 mice/cage) in rooms with temperature and humidity controlled and water and food (Harlan Teklad) freely available. Mice were kept on a 12-hr light:dark cycle. For locomotor experiments, plastic 20×20×30 cm activity cages were equipped with photocell beams (AccuScan Instruments).
For hyperactivity experiments, mice were treated with 0.3 mg/kg dizocilpine i.p. 15 min before the session. Mice were treated with 69NLS75 s.c. 10 min before the session or p.o. 30 min before the session and placed into the activity cages. For spontaneous activity, 69NLS75 was administered alone. Locomotor data were collected during a 15 min session without habituation in a lit room. Each dose combination was tested in a separate group of animals (n=8). Distance traveled (cm) was calculated and averaged followed by ANOVA and post-hoc Dunnett's t-test comparisons.
The effect of various compounds on locomotor activity in mice treated with MK801 was observed as described above.
Animals received 0.1-30 mg/kg of the compound indicated via subcutaneous injection or oral administration. MED indicates the minimum effective dose at which a statistically significant reduction of locomotor activity (described above) was observed. MED=minimum effective dose in vivo.

The target of a further data set is T4, alpha 2A (Homo sapiens, UniProt P08913).
T4 construct: expressed in transfected cells; host or cells: NIH3T3 cells, pSI vector
T4 sequence (P08913 1-465): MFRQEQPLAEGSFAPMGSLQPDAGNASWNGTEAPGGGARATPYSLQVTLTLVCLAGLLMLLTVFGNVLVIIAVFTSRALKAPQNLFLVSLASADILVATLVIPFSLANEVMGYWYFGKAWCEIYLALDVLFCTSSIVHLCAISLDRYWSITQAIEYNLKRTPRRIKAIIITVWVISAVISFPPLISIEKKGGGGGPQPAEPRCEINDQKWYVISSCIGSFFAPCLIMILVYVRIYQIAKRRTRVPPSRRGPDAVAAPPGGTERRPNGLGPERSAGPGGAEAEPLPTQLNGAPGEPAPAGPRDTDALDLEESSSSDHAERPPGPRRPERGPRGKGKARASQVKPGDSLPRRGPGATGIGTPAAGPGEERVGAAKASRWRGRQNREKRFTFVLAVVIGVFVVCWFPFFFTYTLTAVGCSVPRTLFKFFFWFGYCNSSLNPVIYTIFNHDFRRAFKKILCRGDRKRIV
As to the kind of experiment: R-SAT selectivity profiling, alpha 2A. The class given is cell-based. As to conditions: antagonist assay, read-out: pEC50 or pIC50 (converted). On the procedure:
as §1

Another data set addresses T5, 5HT1A (Homo sapiens, UniProt P08908).
T5 construct: expressed in transfected cells; host or cells: NIH3T3 cells, pSI vector
T5 sequence (P08908 1-422): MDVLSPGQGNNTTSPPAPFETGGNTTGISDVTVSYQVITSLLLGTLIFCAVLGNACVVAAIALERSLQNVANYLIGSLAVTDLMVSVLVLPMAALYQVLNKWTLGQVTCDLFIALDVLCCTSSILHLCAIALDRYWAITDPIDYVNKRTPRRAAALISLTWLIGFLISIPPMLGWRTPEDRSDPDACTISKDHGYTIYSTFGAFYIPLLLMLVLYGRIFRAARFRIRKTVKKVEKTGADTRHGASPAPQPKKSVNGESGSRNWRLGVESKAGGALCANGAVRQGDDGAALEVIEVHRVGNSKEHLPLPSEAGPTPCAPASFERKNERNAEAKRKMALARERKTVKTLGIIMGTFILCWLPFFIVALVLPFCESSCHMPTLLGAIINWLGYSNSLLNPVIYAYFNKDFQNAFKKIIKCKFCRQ
Briefly: R-SAT selectivity profiling, 5HT1A. Conditions: antagonist assay, read-out: pEC50 or pIC50 (converted). The class given is cell-based. On the procedure: as §1

The next data set addresses T6, 5-HT2A receptor (Homo sapiens, UniProt P28223).
T6 construct: expressed in transfected cells; host or cells: NIH3T3 cells, pSI mammalian expression vector
As to the kind of experiment: R-SAT functional receptor assay at the 5-HT2A receptor. Conditions: for IC50: R-SAT, NIH3T3 cells, inverse agonism (repression of basal response), read-out: 5HT2A pIC50 (converted). The class given is cell-based. The text has this: The EC50 for an agonist is intended to denote the concentration of a compound needed to achieve 50% of a maximal response seen in R-SAT. For inverse agonists, EC50 is intended to denote the concentration of a compound needed to achieve 50% inhibition of an R-SAT response from basal, no compound, levels.
The functional receptor assay, Receptor Selection and Amplification Technology (R-SAT), was used (with minor modifications from that previously described U.S. Pat. No. 5,707,798) to screen compounds for efficacy at the 5-HT2A receptor. Briefly, NIH3T3 cells were grown in 96 well tissue culture plates to 70-80% confluence. Cells were transfected for 12-16 hours with plasmid DNAs using superfect (Qiagen Inc.) as per manufacture's protocols. R-SAT's were generally performed with 50 ng/well of receptor and 20 ng/well of Beta-galactosidase plasmid DNA-All receptor and G-protein constructs used were in the pSI mammalian expression vector (Promega Inc) as described in U.S. Pat. No. 5,707,798. The 5HT2A receptor gene was amplified by nested PCR from brain cDNA using the oligodeoxynucleotides based on the published sequence (see Saltzman et. al. Biochem. Biophys. Res. Comm. 181:1469-78 (1991)). Large-scale transfections, cells were transfected for 12-16 hours, then trypsinized and frozen in DMSO. Frozen cells were later thawed, plated at 10,000-40,000 cells per well of a 96 well plate that contained drug. With both methods, cells were then grown in a humidified atmosphere with 5% ambient CO2 for five days. Media was then removed from the plates and marker gene activity was measured by the addition of the beta-galactosidase substrate ONPG (in PBS with 5% NP-40). The resulting […] reaction was measured in a spectrophotometric plate reader (Titertek Inc.) at […]. All data were analyzed using the computer program XLFit (IDBSm). Efficacy is the percent maximal repression compared to repression by a control compound (ritanserin in the case of 5HT2A). pIC50 is the negative of the log(IC50), where IC50 is the calculated concentration in Molar that produces 50% maximal repression.
The R-SAT assay (described above in example) was used to investigate the selectivity of 4-(4-Fluoro-benzyl)-3-(4-isobutoxy-benzyl)-8-methyl-1-oxa-3,8-diaza-spiro[4.5]decan-2-one.

Setting [3] is: minimum effective dose for statistically significant reduction of locomotor activity.
[4] abbreviates: efficacy: percent maximal repression compared to ritanserin.

T6 sequence (P28223 whole entry): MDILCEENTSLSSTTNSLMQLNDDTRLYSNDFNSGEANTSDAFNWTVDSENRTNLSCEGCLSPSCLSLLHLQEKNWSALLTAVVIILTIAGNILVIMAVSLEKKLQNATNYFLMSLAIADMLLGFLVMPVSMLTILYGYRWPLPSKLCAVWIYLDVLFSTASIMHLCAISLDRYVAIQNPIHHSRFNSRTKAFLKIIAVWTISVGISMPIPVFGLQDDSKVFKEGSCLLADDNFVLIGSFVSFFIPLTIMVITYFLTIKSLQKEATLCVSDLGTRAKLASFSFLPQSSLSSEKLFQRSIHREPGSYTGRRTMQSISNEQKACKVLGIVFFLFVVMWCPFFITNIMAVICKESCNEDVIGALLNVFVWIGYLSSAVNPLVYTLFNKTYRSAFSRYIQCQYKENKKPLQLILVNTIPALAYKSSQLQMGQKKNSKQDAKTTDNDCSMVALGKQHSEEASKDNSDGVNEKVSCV
T3 sequence (P20309 whole entry): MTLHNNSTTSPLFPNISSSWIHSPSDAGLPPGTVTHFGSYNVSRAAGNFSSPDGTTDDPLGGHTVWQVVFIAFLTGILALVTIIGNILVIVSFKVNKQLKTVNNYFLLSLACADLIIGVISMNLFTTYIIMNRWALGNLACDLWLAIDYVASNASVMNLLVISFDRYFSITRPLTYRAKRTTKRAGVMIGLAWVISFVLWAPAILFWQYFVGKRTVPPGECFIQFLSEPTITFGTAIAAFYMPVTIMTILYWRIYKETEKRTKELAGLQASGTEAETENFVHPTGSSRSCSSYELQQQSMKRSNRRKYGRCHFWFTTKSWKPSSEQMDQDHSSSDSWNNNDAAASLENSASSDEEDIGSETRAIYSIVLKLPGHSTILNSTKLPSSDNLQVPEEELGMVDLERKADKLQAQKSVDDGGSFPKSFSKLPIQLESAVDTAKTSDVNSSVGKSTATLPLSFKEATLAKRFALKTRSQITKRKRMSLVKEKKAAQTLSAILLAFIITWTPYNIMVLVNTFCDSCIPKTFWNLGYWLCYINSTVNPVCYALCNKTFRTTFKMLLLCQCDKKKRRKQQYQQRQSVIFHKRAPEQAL
T1 sequence (P35367 whole entry): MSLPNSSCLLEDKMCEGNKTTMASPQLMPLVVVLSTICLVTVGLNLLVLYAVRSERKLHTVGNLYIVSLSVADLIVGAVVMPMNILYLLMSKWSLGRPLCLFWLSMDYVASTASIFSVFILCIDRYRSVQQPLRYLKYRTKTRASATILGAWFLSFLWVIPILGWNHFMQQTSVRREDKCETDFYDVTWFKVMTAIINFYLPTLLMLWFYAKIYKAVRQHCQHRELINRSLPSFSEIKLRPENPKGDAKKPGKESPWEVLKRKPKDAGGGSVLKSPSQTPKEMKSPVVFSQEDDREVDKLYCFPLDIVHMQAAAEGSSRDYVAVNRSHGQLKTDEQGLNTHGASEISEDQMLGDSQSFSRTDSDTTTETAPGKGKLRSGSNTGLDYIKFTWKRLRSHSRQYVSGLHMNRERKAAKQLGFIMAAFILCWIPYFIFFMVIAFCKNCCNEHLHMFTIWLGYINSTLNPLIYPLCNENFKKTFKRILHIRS

On to `CC(C)COc1ccc(CN2C(=O)OC3(CCN(C)CC3)C2Cc2ccc(F)cc2)cc1.Cl` (racemic) [Compound 69NLS75, 4-(4-Fluorobenzyl)-3-(4-isobutoxybenzyl)-8-methyl-1-oxa-3,8-diaza-spiro[4.5]decan-2-one, hydrochloride], for which, in data set [1], the “effect on spontaneous locomotor activity” value was “no effect”. Besides, the IC50 on H1 was 200 nM; on 5HT 2C (5HT 2C, inverse agonist assay, read-out: pEC50 or pIC50 (converted)), 31.6 nM; on m3, 398 nM; at alpha 2A, 501 nM; at 5HT1A, 398 nM; on 5-HT2A receptor, 0.316 nM. In addition, the “efficacy in brackets (%)” value at 5HT 2C was found to be 77%; on 5-HT2A receptor (5HT2A, inverse agonist assay) it was 94%. Moreover, the “effect on MK-801-induced hyperactivity in mice” value in data set [2] (distance traveled, 15 min session) was “dose-related decrease”. Besides, the “MED (mg/kg) p.o.” value in data set [2] (setting [3]) was 3 mg/kg. Besides, the “MED (mg/kg) s.c.” value in data set [2] (minimum effective dose for statistically significant reduction of locomotor activity, mice treated with MK801, subcutaneous injection) was determined as 3 mg/kg. Moreover, the “dose giving statistically significant decrease of MK-801-induced hyperactivity compared to vehicle control” value in data set [2] (p.o. 30 min before session) and in data set [2] (s.c. 10 min before session) was 3 mg/kg in each case. In addition, the “pEC50 or pIC50” value at 5-HT2A receptor (5HT2A, inverse agonist assay) is on record as 9.5. Further, at 5-HT2A receptor (efficacy: percent maximal repression compared to ritanserin, read-out: 5HT2A % inhibition), the Emax was 94%.

Molecule `CC(C)COc1ccc(CN2C(=O)OC3(CCN(C)CC3)[C@H]2Cc2ccc(F)cc2)cc1.Cl` (single isomer, unassigned) [Compound 78NLS62] returned a 5HT2A % inhibition on 5-HT2A receptor (setting [4]) of 89%.

Take `CC(C)COc1ccc(CN2C(=O)OC3(CCN(C)CC3)[C@H]2Cc2ccc(F)cc2)cc1.Cl` (single isomer, unassigned) [Compound 78NLS62, hydrochloride]: the IC50 on 5-HT2A receptor was 6.31 nM.

Consider `CN1CCC2(CC1)OC(=O)N(Cc1ccc(OCC3CC3)cc1)C2Cc1ccc(F)cc1.Cl` (centres unmarked) [Compound 69NLS52, 3-(4-Cyclopropylmethoxybenzyl)-4-(4-fluorobenzyl)-8-methyl-1-oxa-3,8-diaza-spiro[4.5]decan-2-one, hydrochloride], for which, in data set [2] (setting [3]), the “MED (mg/kg) p.o.” value came to 10 mg/kg.

As to `CC(C)COc1ccc(CN2C(=O)OC3(CCN(C)CC3)[C@@H]2Cc2ccc(F)cc2)cc1` (single isomer, unassigned) [Compound 78NLS59, hydrochloride], the “enantiomer preference at the 5-HT2A receptor in vitro” value on 5-HT2A receptor ((S)- versus (R)-enantiomer, Table 1) is given as “eutomer”. Also, on 5-HT2A receptor, the IC50 was 0.251 nM. The 5HT2A % inhibition at 5-HT2A receptor (setting [4]) was 98%.

Turning to `CC(C)COc1ccc(CN2C(=O)OC3(CCN(CCC4OCCO4)CC3)C2Cc2ccc(F)cc2)cc1.Cl` (centres unmarked) [Compound 69NLS79-II, 8-(2-[1,3]Dioxolan-2-yl-ethyl)-4-(4-fluorobenzyl)-3-(4-isobutoxybenzyl)-1-oxa-3,8-diaza-spiro[4.5]decan-2-one, hydrochloride], the “MED (mg/kg) p.o.” value in data set [2] (setting [3]) was 3 mg/kg.
